Data: patent US10875875B2, “Propionic acid derivatives and methods of use thereof” (Aviara Pharmaceuticals, Inc., priority 2017, dated 2020)

target: α4β1 (Homo sapiens, UniProt P05556+P13612); assay: α4β1 integrin inhibition, IC50; type: binding; settings: read-out: α4β1 IC50
Sequence (P13612 34-1032): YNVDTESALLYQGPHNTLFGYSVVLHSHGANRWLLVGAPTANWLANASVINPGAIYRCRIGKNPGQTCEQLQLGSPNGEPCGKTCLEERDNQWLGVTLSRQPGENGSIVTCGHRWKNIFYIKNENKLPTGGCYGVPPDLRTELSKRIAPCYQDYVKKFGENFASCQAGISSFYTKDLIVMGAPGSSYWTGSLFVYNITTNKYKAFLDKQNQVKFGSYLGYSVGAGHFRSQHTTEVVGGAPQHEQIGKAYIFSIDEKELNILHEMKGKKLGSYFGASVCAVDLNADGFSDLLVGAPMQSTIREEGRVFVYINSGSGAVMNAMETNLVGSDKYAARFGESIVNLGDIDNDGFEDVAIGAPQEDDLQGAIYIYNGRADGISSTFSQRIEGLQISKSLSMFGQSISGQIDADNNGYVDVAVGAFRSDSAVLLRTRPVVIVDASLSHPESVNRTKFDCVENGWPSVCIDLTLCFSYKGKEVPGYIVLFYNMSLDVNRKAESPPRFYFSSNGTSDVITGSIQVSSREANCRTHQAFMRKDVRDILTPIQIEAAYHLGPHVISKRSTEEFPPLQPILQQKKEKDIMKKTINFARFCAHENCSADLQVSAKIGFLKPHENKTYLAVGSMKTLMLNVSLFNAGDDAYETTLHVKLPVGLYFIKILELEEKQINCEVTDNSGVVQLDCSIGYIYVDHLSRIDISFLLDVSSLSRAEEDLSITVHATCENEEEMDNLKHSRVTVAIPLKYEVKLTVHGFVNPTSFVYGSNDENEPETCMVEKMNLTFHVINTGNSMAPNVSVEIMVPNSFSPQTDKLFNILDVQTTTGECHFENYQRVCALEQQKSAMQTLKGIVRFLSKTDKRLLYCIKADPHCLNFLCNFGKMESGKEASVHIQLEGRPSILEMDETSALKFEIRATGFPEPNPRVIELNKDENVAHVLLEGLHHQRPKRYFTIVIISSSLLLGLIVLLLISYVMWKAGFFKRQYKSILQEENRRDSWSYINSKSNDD
Sequence (P05556 21-798): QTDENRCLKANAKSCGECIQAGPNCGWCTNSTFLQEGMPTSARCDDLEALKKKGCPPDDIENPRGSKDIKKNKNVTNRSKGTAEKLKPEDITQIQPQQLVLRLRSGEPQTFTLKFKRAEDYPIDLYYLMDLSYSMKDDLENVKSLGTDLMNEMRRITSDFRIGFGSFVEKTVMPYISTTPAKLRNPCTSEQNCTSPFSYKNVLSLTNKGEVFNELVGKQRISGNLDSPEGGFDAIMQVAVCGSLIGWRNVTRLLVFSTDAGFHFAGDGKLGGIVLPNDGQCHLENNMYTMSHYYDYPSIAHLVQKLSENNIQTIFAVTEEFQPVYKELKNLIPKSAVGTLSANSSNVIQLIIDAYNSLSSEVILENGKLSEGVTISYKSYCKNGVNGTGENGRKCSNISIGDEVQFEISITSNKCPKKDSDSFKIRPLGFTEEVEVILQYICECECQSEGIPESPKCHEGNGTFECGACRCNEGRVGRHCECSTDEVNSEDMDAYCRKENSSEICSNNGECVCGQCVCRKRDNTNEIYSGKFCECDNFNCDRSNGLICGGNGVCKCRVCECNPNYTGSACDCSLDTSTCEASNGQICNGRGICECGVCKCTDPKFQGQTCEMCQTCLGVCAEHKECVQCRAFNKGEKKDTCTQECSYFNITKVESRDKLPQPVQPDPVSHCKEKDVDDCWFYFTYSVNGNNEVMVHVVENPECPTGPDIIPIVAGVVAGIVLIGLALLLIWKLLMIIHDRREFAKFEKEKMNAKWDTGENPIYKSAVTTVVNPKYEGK

Cc1cccc(C)c1-c1ccc(F)c([C@H](CC(=O)O)NC(=O)Nc2c(O)cc(C)n(C)c2=O)c1 [1-589, sodium (S)-3-(3-(1,6-dimethyl-4-oxido-2-oxo-1,2-dihydropyridin-3-yl)ureido)-3-(4-fluoro-2′,6′-dimethylbiphenyl-3-yl)propanoate] and COc1cccc(-c2ccc(F)c([C@H](CC(=O)O)NC(=O)Nc3c(O)cc(C)n(C)c3=O)c2)c1 [1-603, sodium (S)-3-(3-(1,6-dimethyl-4-oxido-2-oxo-1,2-dihydropyridin-3-yl)ureido)-3-(4-fluoro-3′-methoxybiphenyl-3-yl)propanoate] cannot be ordered by IC50: < 20 nM for the first, < 20 nM for the second.

Cc1cc(O)c(NC(=O)N[C@@H](CC(=O)O)c2cc(-c3ccc(F)cc3F)ccc2F)c(=O)n1C [1-592, sodium (S)-3-(3-(1,6-dimethyl-4-oxido-2-oxo-1,2-dihydropyridin-3-yl)ureido)-3-(2′,4,4′-trifluorobiphenyl-3-yl)propanoate] and Cc1cc(-c2ccc(F)cc2F)cc([C@H](CC(=O)O)NC(=O)Nc2c(O)cc(C)n(C)c2=O)c1 [1-575, sodium (S)-3-(2′,4′-difluoro-5-methylbiphenyl-3-yl)-3-(3-(1,6-dimethyl-4-oxido-2-oxo-1,2-dihydropyridin-3-yl)ureido)propanoate] cannot be ordered by IC50: < 20 nM for the first, < 20 nM for the second.

Cc1ccc([C@H](CC(=O)O)NC(=O)Nc2c(O)ccn(C)c2=O)cc1-c1cccc(Cl)c1 [1-555, sodium (S)-3-(3′-chloro-6-methylbiphenyl-3-yl)-3-(3-(1-methyl-4-oxido-2-oxo-1,2-dihydropyridin-3-yl)ureido)propanoate] and COc1cccc(-c2cc([C@H](CC(=O)O)NC(=O)Nc3c(O)ccn(C)c3=O)ccc2OC)c1 [1-524, sodium (S)-3-(3′,6-dimethoxybiphenyl-3-yl)-3-(3-(1-methyl-4-oxido-2-oxo-1,2-dihydropyridin-3-yl)ureido)propanoate] cannot be ordered by IC50: < 20 nM for the first, < 20 nM for the second.

Cc1cn(C)c(=O)c(NC(=O)N[C@@H](CC(=O)O)c2cccc(-c3cccc(F)c3)c2)c1O [1-465, sodium (S)-3-(3-(1,5-dimethyl-4-oxido-2-oxo-1,2-dihydropyridin-3-yl)ureido)-3-(3′-fluorobiphenyl-3-yl)propanoate] and Cc1cc(-c2cccc([C@H](CC(=O)O)NC(=O)Nc3c(O)c(C)cn(C)c3=O)c2)ccc1F [1-497, sodium (S)-3-(3-(1,5-dimethyl-4-oxido-2-oxo-1,2-dihydropyridin-3-yl)ureido)-3-(4′-fluoro-3′-methylbiphenyl-3-yl)propanoate] cannot be ordered by IC50: < 20 nM for the first, < 200 nM for the second.

Cc1ccc(-c2cccc([C@H](CC(=O)O)NC(=O)Nc3c(O)c(C)cn(C)c3=O)c2)cc1 [1-450, sodium (S)-3-(3-(1,5-dimethyl-4-oxido-2-oxo-1,2-dihydropyridin-3-yl)ureido)-3-(4′-methylbiphenyl-3-yl)propanoate] and CCn1cc(C)c(O)c(NC(=O)N[C@@H](CC(=O)O)c2cccc(-c3ccc(C)cc3)c2)c1=O [1-444, sodium (S)-3-(3-(1-ethyl-5-methyl-4-oxido-2-oxo-1,2-dihydropyridin-3-yl)ureido)-3-(4′-methylbiphenyl-3-yl)propanoate] cannot be ordered by IC50: < 200 nM for the first, < 200 nM for the second.

Cn1ccc(O)c(NC(=O)N[C@@H](CC(=O)O)c2cccc(-c3cccs3)c2)c1=O [1-532, sodium (S)-3-(3-(1-methyl-4-oxido-2-oxo-1,2-dihydropyridin-3-yl)ureido)-3-(3-(thiophen-2-yl)phenyl)propanoate] and Cn1ccc(O)c(NC(=O)N[C@@H](CC(=O)O)c2cccc(-c3ccc(Cl)s3)c2)c1=O [1-538, sodium (S)-3-(3-(5-chlorothiophen-2-yl)phenyl)-3-(3-(1-methyl-4-oxido-2-oxo-1,2-dihydropyridin-3-yl)ureido)propanoate] cannot be ordered by IC50: < 20 nM for the first, < 20 nM for the second.

Cc1cccc(-c2cccc([C@H](CC(=O)O)NC(=O)Nc3c(O)c(C)cn(C)c3=O)c2)c1C [1-462, sodium (S)-3-(3-(1,5-dimethyl-4-oxido-2-oxo-1,2-dihydropyridin-3-yl)ureido)-3-(2′,3′-dimethylbiphenyl-3-yl)propanoate] and COc1cccc(-c2cccc([C@H](CC(=O)O)NC(=O)Nc3c(O)c(C)cn(C)c3=O)c2)c1OC [1-504, sodium (S)-3-(2′,3′-dimethoxybiphenyl-3-yl)-3-(3-(1,5-dimethyl-4-oxido-2-oxo-1,2-dihydropyridin-3-yl)ureido)propanoate] cannot be ordered by IC50: < 200 nM for the first, < 20 nM for the second.

COc1cccc(-c2cc(OC)cc([C@H](CC(=O)O)NC(=O)Nc3c(O)ccn(C)c3=O)c2)c1 [1-564, sodium (S)-3-(3′,5-dimethoxybiphenyl-3-yl)-3-(3-(1-methyl-4-oxido-2-oxo-1,2-dihydropyridin-3-yl)ureido)propanoate] and COc1cccc(-c2cc(OC)cc([C@H](CC(=O)O)NC(=O)Nc3c(O)cc(C)n(C)c3=O)c2)c1 [1-567, sodium (S)-3-(3′,5-dimethoxybiphenyl-3-yl)-3-(3-(1,6-dimethyl-4-oxido-2-oxo-1,2-dihydropyridin-3-yl)ureido)propanoate] cannot be ordered by IC50: < 20 nM for the first, < 20 nM for the second.

COc1cccc(-c2cc([C@H](CC(=O)O)NC(=O)Nc3c(O)cc(C)n(C)c3=O)ccc2OC(F)(F)F)c1 [1-635, sodium (S)-3-(3-(1,6-dimethyl-4-oxido-2-oxo-1,2-dihydropyridin-3-yl)ureido)-3-(3′-methoxy-6-(trifluoromethoxy)biphenyl-3-yl)propanoate] and COc1ccc([C@H](CC(=O)O)NC(=O)Nc2c(O)ccn(C)c2=O)cc1-c1cccc(OC(F)(F)F)c1 [1-535, sodium (S)-3-(6-methoxy-3′-(trifluoromethoxy)biphenyl-3-yl)-3-(3-(1-methyl-4-oxido-2-oxo-1,2-dihydropyridin-3-yl)ureido)propanoate] cannot be ordered by IC50: < 20 nM for the first, < 20 nM for the second.

Cn1ccc(O)c(NC(=O)N[C@@H](CC(=O)O)c2ccc(-c3cccc(F)c3)s2)c1=O [1-620, sodium (S)-3-(5-(3-fluorophenyl)thiophen-2-yl)-3-(3-(1-methyl-4-oxido-2-oxo-1,2-dihydropyridin-3-yl)ureido)propanoate] and COc1cccc(-c2ccc([C@H](CC(=O)O)NC(=O)Nc3c(O)ccn(C)c3=O)s2)c1 [1-563, sodium (S)-3-(5-(3-methoxyphenyl)thiophen-2-yl)-3-(3-(1-methyl-4-oxido-2-oxo-1,2-dihydropyridin-3-yl)ureido)propanoate] cannot be ordered by IC50: < 200 nM for the first, < 20 nM for the second.

Cc1cc(-c2c(C)cccc2C)cc([C@H](CC(=O)O)NC(=O)Nc2c(O)ccn(C)c2=O)c1 [1-573, sodium (S)-3-(3-(1-methyl-4-oxido-2-oxo-1,2-dihydropyridin-3-yl)ureido)-3-(2′,5,6′-trimethylbiphenyl-3-yl)propanoate] and COc1cccc(-c2cccc([C@H](CC(=O)O)NC(=O)Nc3c(O)ccn(C)c3=O)c2)c1F [1-509, sodium (S)-3-(2′-fluoro-3′-methoxybiphenyl-3-yl)-3-(3-(1-methyl-4-oxido-2-oxo-1,2-dihydropyridin-3-yl)ureido)propanoate] cannot be ordered by IC50: < 20 nM for the first, < 20 nM for the second.

Cc1cn(C)c(=O)c(NC(=O)N[C@@H](CC(=O)O)c2ccc(-c3ccc(F)cc3F)cc2)c1O [1-623, sodium (S)-3-(2′,4′-difluorobiphenyl-4-yl)-3-(3-(1,5-dimethyl-4-oxido-2-oxo-1,2-di hydropyridin-3-yl)ureido)propanoate] and Cc1cn(C)c(=O)c(NC(=O)NC(CC(=O)O)c2cccc(-c3ccc(Cl)c(Cl)c3)c2)c1O (centres unmarked) [1-481, sodium 3-(3′,4′-dichlorobiphenyl-3-yl)-3-(3-(1,5-dimethyl-4-oxido-2-oxo-1,2-dihydropyridin-3-yl)ureido)propanoate] cannot be ordered by IC50: < 20 nM for the first, < 200 nM for the second.

COc1ccc([C@H](CC(=O)O)NC(=O)Nc2c(O)c(C)cn(C)c2=O)cc1-c1ccccc1 [1-449, sodium (S)-3-(3-(1,5-dimethyl-4-oxido-2-oxo-1,2-dihydropyridin-3-yl)ureido)-3-(6-methoxybiphenyl-3-yl)propanoate] and Cc1cn(C)c(=O)c(NC(=O)N[C@@H](CC(=O)O)c2cc(-c3ccccc3)ccc2F)c1O [1-493, sodium (S)-3-(3-(1,5-dimethyl-4-oxido-2-oxo-1,2-dihydropyridin-3-yl)ureido)-3-(4-fluorobiphenyl-3-yl)propanoate] cannot be ordered by IC50: < 200 nM for the first, < 200 nM for the second.

Cn1ccc(O)c(NC(=O)N[C@@H](CC(=O)O)c2cc(OC(F)(F)F)cc(-c3ccccc3)c2)c1=O [1-615, sodium (S)-3-(3-(1-methyl-4-oxido-2-oxo-1,2-dihydropyridin-3-yl)ureido)-3-(5-(trifluoromethoxy)biphenyl-3-yl)propanoate] and Cn1ccc(O)c(NC(=O)N[C@@H](CC(=O)O)c2cccc(-c3ccccc3)c2)c1=O [1-505, sodium (S)-3-(biphenyl-3-yl)-3-(3-(1-methyl-4-oxido-2-oxo-1,2-dihydropyridin-3-yl)ureido)propanoate] cannot be ordered by IC50: < 20 nM for the first, < 20 nM for the second.

COc1ccc(-c2cccc([C@H](CC(=O)O)NC(=O)Nc3c(O)c(C)cn(C)c3=O)c2)c(OC)c1 [1-468, sodium (S)-3-(2′,4′-dimethoxybiphenyl-3-yl)-3-(3-(1,5-dimethyl-4-oxido-2-oxo-1,2-dihydropyridin-3-yl)ureido)propanoate] and Cc1cn(C)c(=O)c(NC(=O)N[C@@H](CC(=O)O)c2cccc(-c3ccc4c(c3)OCO4)c2)c1O [1-517, sodium (S)-3-(3-(benzo[d][1,3]dioxol-5-yl)phenyl)-3-(3-(1,5-dimethyl-4-oxido-2-oxo-1,2-dihydropyridin-3-yl)ureido)propanoate] cannot be ordered by IC50: < 200 nM for the first, < 20 nM for the second.

First: COc1cccc(-c2ccc(F)c([C@H](CC(=O)O)NC(=O)Nc3c(O)ccn(C)c3=O)c2)c1 [1-593, sodium (S)-3-(4-fluoro-3′-methoxybiphenyl-3-yl)-3-(3-(1-methyl-4-oxido-2-oxo-1,2-dihydropyridin-3-yl)ureido)propanoate]
Second: Cc1cn(C)c(=O)c(NC(=O)N[C@@H](CC(=O)O)c2cccn2-c2ccccc2)c1O [1-498, sodium (S)-3-(3-(1,5-dimethyl-4-oxido-2-oxo-1,2-dihydropyridin-3-yl)ureido)-3-(1-phenyl-1H-pyrrol-2-yl)propanoate]
The IC50 of the first is lower: < 20 nM for the first, > 200 nM for the second. The first is the more potent here.
